± gives the expanded uncertainty stated by the source.
Legend:
[1] = for mass density / viscosity / thermal conductivity: 101.33 kPa, Liquid; for mass density: Vibrating tube method; for thermal conductivity: Hot wire method; for Glass transition temperature: DTA
[2] = molar heat capacity at constant pressure; conditions: 101.33 kPa, Liquid, Large sample (1 g) DSC

SMILES	mass density ([1]; 293.15 K) [kg/m3]	viscosity ([1]; 298.15 K) [mPa·s]	mass density ([1]; 298.15 K) [kg/m3]	viscosity ([1]; 303.15 K) [mPa·s]	mass density ([1]; 303.15 K) [kg/m3]	viscosity ([1]; 313.15 K) [mPa·s]	mass density ([1]; 313.15 K) [kg/m3]	viscosity ([1]; 323.15 K) [mPa·s]	mass density ([1]; 323.15 K) [kg/m3]	viscosity ([1]; 333.15 K) [mPa·s]	mass density ([1]; 333.15 K) [kg/m3]	viscosity ([1]; 343.15 K) [mPa·s]	mass density ([1]; 343.15 K) [kg/m3]	viscosity ([1]; 353.15 K) [mPa·s]	mass density ([1]; 353.15 K) [kg/m3]	viscosity ([1]; 363.15 K) [mPa·s]	mass density ([1]; 363.15 K) [kg/m3]	Glass transition temperature [1] [°C]	molar heat capacity at constant pressure ([2]; 293.15 K) [J/K/mol]	molar heat capacity at constant pressure ([2]; 298.15 K) [J/K/mol]	other results
CCCC[N+](C)(CCCC)CCCC.NCCCC[C@H](N)C(=O)[O-] [N,N-dibutyl-N-methyl-1-butanaminium L-lysinate]	982.9 ± 5.2	2593 ± 690	979.7 ± 5.2	1679 ± 400	976.7 ± 5.2	741.4 ± 140	970.7 ± 5.1	368.6 ± 51	964.7 ± 5	200.2 ± 20	958.6 ± 5	112.9 ± 6.9	952.7 ± 4.9	68.3 ± 2.3	946.8 ± 4.9	43.9 ± 1.3	940.8 ± 4.8	-59.39 ± 4	817.3 ± 82	823.8 ± 83	thermal conductivity ([1]; 298.15 K): 0.171 ± 0.01 W/m/K; thermal conductivity ([1]; 303.15 K): 0.17 ± 0.01 W/m/K; thermal conductivity ([1]; 313.15 K): 0.169 ± 0.01 W/m/K; thermal conductivity ([1]; 323.15 K): 0.168 ± 0.01 W/m/K; thermal conductivity ([1]; 333.15 K): 0.167 ± 0.01 W/m/K; thermal conductivity ([1]; 343.15 K): 0.166 ± 0.01 W/m/K; thermal conductivity ([1]; 353.15 K): 0.165 ± 0.01 W/m/K; molar heat capacity at constant pressure ([2]; 303.15 K): 830.8 ± 84 J/K/mol; molar heat capacity at constant pressure ([2]; 313.15 K): 845.6 ± 85 J/K/mol; molar heat capacity at constant pressure ([2]; 323.15 K): 861.2 ± 87 J/K/mol; molar heat capacity at constant pressure ([2]; 333.15 K): 877.7 ± 89 J/K/mol; molar heat capacity at constant pressure ([2]; 343.15 K): 893.3 ± 90 J/K/mol; molar heat capacity at constant pressure ([2]; 353.15 K): 909.5 ± 92 J/K/mol; molar heat capacity at constant pressure ([2]; 363.15 K): 925.1 ± 93 J/K/mol
CCCC[P+](CCCC)(CCCC)CCCC.NCCS(=O)(=O)[O-] [tetrabutylphosphonium 2-aminoethanesulfonate]	1030.1 ± 5.7	1019 ± 210	1026.8 ± 5.7	712.6 ± 130	1023.7 ± 5.7	345.5 ± 46	1017.6 ± 5.6	186.2 ± 17	1011.5 ± 5.5	106.7 ± 6.2	1005.3 ± 5.5	67.5 ± 2.2	999.2 ± 5.4	44.2 ± 1.3	993.3 ± 5.3	29.6 ± 0.9	987.3 ± 5.3	-58.14 ± 4	987.7 ± 100	994.6 ± 100	molar heat capacity at constant pressure ([2]; 303.15 K): 1001.6 ± 100 J/K/mol; molar heat capacity at constant pressure ([2]; 313.15 K): 1015 ± 100 J/K/mol; molar heat capacity at constant pressure ([2]; 323.15 K): 1028.4 ± 100 J/K/mol; molar heat capacity at constant pressure ([2]; 333.15 K): 1042.6 ± 110 J/K/mol; molar heat capacity at constant pressure ([2]; 343.15 K): 1057.6 ± 110 J/K/mol; molar heat capacity at constant pressure ([2]; 353.15 K): 1073.7 ± 110 J/K/mol; molar heat capacity at constant pressure ([2]; 363.15 K): 1088.6 ± 110 J/K/mol
CCCC[N+](C)(CCCC)CCCC.C[C@@H](O)[C@H](N)C(=O)[O-] [N,N-dibutyl-N-methyl-1-butanaminium L-threoninate]	1002.6 ± 5.4	8368 ± 2900	999.5 ± 5.4	4916 ± 1500	996.4 ± 5.4	1845 ± 450	990 ± 5.3	791.3 ± 150	983.7 ± 5.2	377.6 ± 52	977.7 ± 5.2	200.6 ± 20	971.7 ± 5.1	110.9 ± 6.7	965.7 ± 5	66.2 ± 2.1	959.8 ± 5	-51.94 ± 4	748.5 ± 76	752.6 ± 76	thermal conductivity ([1]; 298.15 K): 0.16 ± 0.01 W/m/K; thermal conductivity ([1]; 303.15 K): 0.159 ± 0.01 W/m/K; thermal conductivity ([1]; 313.15 K): 0.158 ± 0.01 W/m/K; thermal conductivity ([1]; 323.15 K): 0.157 ± 0.01 W/m/K; thermal conductivity ([1]; 333.15 K): 0.156 ± 0.01 W/m/K; thermal conductivity ([1]; 343.15 K): 0.155 ± 0.01 W/m/K; thermal conductivity ([1]; 353.15 K): 0.154 ± 0.01 W/m/K; molar heat capacity at constant pressure ([2]; 303.15 K): 757.1 ± 76 J/K/mol; molar heat capacity at constant pressure ([2]; 313.15 K): 766.9 ± 78 J/K/mol; molar heat capacity at constant pressure ([2]; 323.15 K): 777.4 ± 78 J/K/mol; molar heat capacity at constant pressure ([2]; 333.15 K): 789.2 ± 80 J/K/mol; molar heat capacity at constant pressure ([2]; 343.15 K): 801 ± 81 J/K/mol; molar heat capacity at constant pressure ([2]; 353.15 K): 811.5 ± 82 J/K/mol; molar heat capacity at constant pressure ([2]; 363.15 K): 821.1 ± 83 J/K/mol
CCCC[N+](C)(CCCC)CCCC.NCCS(=O)(=O)[O-] [N,N-dibutyl-N-methyl-1-butanaminium 2-aminoethanesulfonate]	1054.1 ± 6	6674 ± 2200	1051.1 ± 6	3965 ± 1200	1048.1 ± 5.9	1600 ± 380	1041.6 ± 5.9	716 ± 130	1035.7 ± 5.8	357.5 ± 48	1029.8 ± 5.7	193.4 ± 18	1023.9 ± 5.7	108.2 ± 6.3	1018 ± 5.6	66.8 ± 2.1	1012.1 ± 5.5	-54.23 ± 4	822.3 ± 83	826.9 ± 84	molar heat capacity at constant pressure ([2]; 303.15 K): 831.7 ± 84 J/K/mol; molar heat capacity at constant pressure ([2]; 313.15 K): 842.5 ± 85 J/K/mol; molar heat capacity at constant pressure ([2]; 323.15 K): 853.2 ± 86 J/K/mol; molar heat capacity at constant pressure ([2]; 333.15 K): 863.2 ± 87 J/K/mol; molar heat capacity at constant pressure ([2]; 343.15 K): 872.6 ± 88 J/K/mol; molar heat capacity at constant pressure ([2]; 353.15 K): 882.4 ± 89 J/K/mol; molar heat capacity at constant pressure ([2]; 363.15 K): 891.5 ± 90 J/K/mol
CCCC[P+](CCCC)(CCCC)CCCC.C[C@@H](O)[C@H](N)C(=O)[O-] [tetrabutylphosphonium L-threoninate]	983 ± 5.2	739 ± 140	979.9 ± 5.2	519.8 ± 83	976.9 ± 5.2	260.1 ± 30	970.7 ± 5.1	143.2 ± 11	964.6 ± 5	88.5 ± 4.1	958.5 ± 5	53.9 ± 1.4	952.5 ± 4.9	36.2 ± 1.1	946.6 ± 4.9	25.1 ± 0.8	940.7 ± 4.8	-60.72 ± 4	952.2 ± 96	961.3 ± 97	thermal conductivity ([1]; 298.15 K): 0.156 ± 0.01 W/m/K; thermal conductivity ([1]; 303.15 K): 0.155 ± 0.01 W/m/K; thermal conductivity ([1]; 313.15 K): 0.154 ± 0.01 W/m/K; thermal conductivity ([1]; 323.15 K): 0.153 ± 0.01 W/m/K; thermal conductivity ([1]; 333.15 K): 0.152 ± 0.01 W/m/K; thermal conductivity ([1]; 343.15 K): 0.152 ± 0.01 W/m/K; thermal conductivity ([1]; 353.15 K): 0.151 ± 0.01 W/m/K; molar heat capacity at constant pressure ([2]; 303.15 K): 970.7 ± 98 J/K/mol; molar heat capacity at constant pressure ([2]; 313.15 K): 991.5 ± 100 J/K/mol; molar heat capacity at constant pressure ([2]; 323.15 K): 1012.6 ± 100 J/K/mol; molar heat capacity at constant pressure ([2]; 333.15 K): 1033.4 ± 100 J/K/mol; molar heat capacity at constant pressure ([2]; 343.15 K): 1055.7 ± 110 J/K/mol; molar heat capacity at constant pressure ([2]; 353.15 K): 1076.4 ± 110 J/K/mol; molar heat capacity at constant pressure ([2]; 363.15 K): 1097.2 ± 110 J/K/mol
CCCC[P+](CCCC)(CCCC)CCCC.N[C@@H](CS)C(=O)[O-] [tetrabutylphosphonium L-cysteinate]	1037.2 ± 5.8	2946 ± 810	1033.7 ± 5.8	1866 ± 460	1030 ± 5.7	832.7 ± 160	1023.8 ± 5.7	397.4 ± 57	1017.8 ± 5.6	208.4 ± 21	1011.7 ± 5.5	118.3 ± 7.6	1005.4 ± 5.5	72.5 ± 2.6	999.1 ± 5.4	46.6 ± 1.4	993 ± 5.3	-29.68 ± 4	913.7 ± 92	919.8 ± 93	thermal conductivity ([1]; 298.15 K): 0.152 ± 0.01 W/m/K; thermal conductivity ([1]; 303.15 K): 0.151 ± 0.01 W/m/K; thermal conductivity ([1]; 313.15 K): 0.15 ± 0.01 W/m/K; thermal conductivity ([1]; 323.15 K): 0.149 ± 0.01 W/m/K; thermal conductivity ([1]; 333.15 K): 0.148 ± 0.01 W/m/K; thermal conductivity ([1]; 343.15 K): 0.147 ± 0.01 W/m/K; thermal conductivity ([1]; 353.15 K): 0.146 ± 0.01 W/m/K; molar heat capacity at constant pressure ([2]; 303.15 K): 926.6 ± 94 J/K/mol; molar heat capacity at constant pressure ([2]; 313.15 K): 942.5 ± 95 J/K/mol; molar heat capacity at constant pressure ([2]; 323.15 K): 959.6 ± 97 J/K/mol; molar heat capacity at constant pressure ([2]; 333.15 K): 977.1 ± 99 J/K/mol; molar heat capacity at constant pressure ([2]; 343.15 K): 993.4 ± 100 J/K/mol; molar heat capacity at constant pressure ([2]; 353.15 K): 1008.2 ± 100 J/K/mol; molar heat capacity at constant pressure ([2]; 363.15 K): 1021.5 ± 100 J/K/mol
